Data set [1] deals with P. aeruginosa ATCC 25668, mucoid strain. Briefly: Degradation of pre-formed 24 h old biofilm, crystal violet. Type of data set: cell-based, Pseudomonas aeruginosa. Particulars: for mean decrement in biomass of pre-formed biofilm: 1 h treatment of 24 h old biofilm. The procedure: (§1) One hundred μL of bacteria (1 × 10^6 cells/mL), derived from a fresh ON culture, were seeded in a sterile non-treated polystyrene 96-well plate (Corning) and incubated for 24 h at 37 °C without agitation. […] Evaluation of biofilm biomass was performed using a crystal violet assay as described above (Section 4.8). Experiments were performed two-four times.

The test system of data set [2] is P. aeruginosa ATCC 27853, non-mucoid strain. Described as above. Particulars: for mean decrement in biomass of pre-formed biofilm: 1 h treatment of 24 h old biofilm. Type of data set: cell-based, Pseudomonas aeruginosa. The procedure:
as §1

The test system of data set [3] is P. aeruginosa ATCC 25668. Briefly: CFU assay of medium over treated 24 h old biofilm. It is filed as cell-based, Pseudomonas aeruginosa. The following applies: for mean CFUs/mL decrement vs untreated control: 1 MIC, 1 h; for living bacterial cells in the medium, Mean ± SEM: 1 h treatment of 24 h-old biofilm with 1 MIC (2.2 μM), four experiments, control 2.67 ± 2.67 × 10^15.

In data set [4] the test system is P. aeruginosa ATCC 27853 and ATCC 25668 strains. Briefly: microbe, parasite or virus in culture. Type of data set: cell-based, Pseudomonas aeruginosa. The following applies: ATCC 27853, 24 h. The procedure: The following strains were used: P. aeruginosa ATCC 27853, ATCC 25668, and PAO1-L (Lausanne subline). All strains were grown at 37 °C in Luria Bertani (LB) medium or in Luria Bertani Agar (LBA) plates.
The antibacterial activities of L- and D-Q53 CecB were evaluated by determining (i) the MIC and (ii) the MBC. Tobramycin (Merck) was used as an antibiotic control. (i) An overnight (ON) bacterial culture was diluted to 1 × 10^6 cells/mL in LB medium. 50 µL/well were seeded in sterile polypropylene 96-well plates (Corning, Corning, NY, USA) and added with 50 µL LB medium, containing serial dilutions of each compound (final concentrations of L- and D-Q53 CecB peptides from 1.1 to 35.2 µM; final concentrations of tobramycin from 0.26 to 17 μM; each condition in triplicate). Microbial suspensions in the growing medium (positive control) and wells with only the medium (negative controls) were processed in parallel. Plates were incubated 24 h at 37 °C with agitation (300 rpm), and the absorbance was measured at 600 nm in a microplate reader. The MIC was considered as the lowest concentration determining a delta optical density at 600 nm (ΔOD600) equal to 0 ± 0.05. The ΔOD600 was determined by subtracting the OD600 recorded at time 0 from that obtained after 24 h. Each experiment was performed at least three times. […] For each sample, 100 μL of 1:10, 1:100, and 1:1000 dilutions were plated on LBA plates, and colonies were counted after 24 h at 37 °C. […] Each experiment was performed at least twice.

For data set [5], the system named is P. aeruginosa biofilms (ATCC 25668). Briefly: Confocal microscopy of pre-formed biofilm, thickness. Type of data set: cell-based, Pseudomonas aeruginosa. The following applies: 1 h treatment with 1 MIC (2.2 μM) of 24 h old biofilm; 6-8 confocal fields. How it is done: Bacteria cells (1 × 10^6 cells/mL) were grown in Permanox four-wells chamber slide systems (1.8 cm^2/well; Nunc® Lab-Tek® Chamber SlideTM system) at 37 °C for 24 h without agitation to allow biofilm formation. […] Negative controls, treated with LB only, were followed in parallel. […] After each staining, samples were washed twice with PBS. After washing, samples were fixed in 4% Paraformaldehyde, mounted in VECTASHIELD® mounting medium (Vector Laboratories, Newark, CA, USA), and observed using a Zeyss LSM 900 Airyscan 2 confocal microscope and a ×63 oil immersion objective. Optical sections (Z-series) were taken at 0.2 μm intervals. Experiments were performed four times (one-two replicates per condition). […] EPS was visualized using a 405 nm wavelength for excitation and 413-480 nm for emission (blue); to detect proteins or Propidium Iodide (red), a 543 nm wavelength for excitation and 590-610 nm for emission were used. Post-acquisition analyses were performed with Fiji (http://fiji.sc/wiki/index.php, downloaded on 4 April 2022). Cross-section views (x-z and y-z planes were obtained with the “Orthogonal View” plugin. To evaluate live and dead cells, images of single 0.13 μm slices taken in the upper part of the biofilm (i.e., in contact with the peptide during treatment) were processed using the “Counting Objects” plugin, and the same threshold level for red and green colors.

For data set [6], the system named is human red blood cells (hRBCs). It is filed as cell-based. The following applies: for MHC (minimum hemolytic concentration causing 5% hemolysis of hRBCs): red cells of human, 1 h. The procedure:
The peptide hemolytic activity was evaluated against human red blood cells (hRBCs) using the Haemolysis Assay Kit (HaemoScan, Groningen, The Netherlands), following the manufacturer’s instructions. 180 μL of hRBC solution were incubated 1 h at 37 °C with 20 μL of serially diluted L- and D-CecB Q53 peptides (final concentrations of 5, 10, 25, 50, 100, 200 µM) in triplicate. As hemolysis positive and negative controls, hRBC solutions incubated, respectively, with 0.2% Triton X and PBS, were followed in parallel. After centrifugation 10 min at 10,000× g, each supernatant was diluted 1:10 in the Assay Buffer and read at 450 nm with a microplate reader.
Hemolysis was evaluated according to the following equation: Hemolysis (%)=ODCecB−OD0/ODCtrl−OD0×100, where ODCecB is the OD in the presence of the peptide, ODCtrl is the OD of treated controls (0.2% Triton X), and OD0 is the background absorbance. The experiment was performed at least twice.

The test system of data set [7] is P. aeruginosa ATCC 25668 (lasI, rpoS, fimX, pslA, pelA, algD). Briefly: Real-time qPCR of genes involved in biofilm formation. It is filed as cell-based, Pseudomonas aeruginosa. The following applies: 20 h; 1/2 MIC L- or 1/4 MIC D-Q53 CecB; normalised to rplU. How it is done:
Bacteria were collected after centrifugation and stored in Trizol Reagent (Ambion, Waltham, MA, USA) at −80 °C, until use. Total RNA was extracted using the Direct-zol RNA MiniPrep kit (Zymo Research, Irvine, CA, USA). The complementary DNA (cDNA) was synthesized using the Maxima™ H Minus cDNA Synthesis Master Mix with dsDNase (Molecular biology, Thermo Scientific). Each qPCR reaction was performed in triplicate, using the GoTaq qPCR Master Mix (Promega, Madison, WI, USA) and a CFX96 Real-Time PCR Detection System (Bio-Rad, Hercules, CA, USA), following the manufacturer’s instructions. The amplification conditions were 95 °C 2 min, (15 s at 95 °C, 1 min at the appropriate annealing temperature Ta, as in Table 5) ×40 cycles. The rplU gene, coding the 50 S ribosomal protein, was used to normalize qPCR data as in [36]. Fold changes were calculated by the 2^−ΔΔCT analysis method.
In general terms: In qPCR the cycle at which signal appears reflects the starting amount.

We go through two molecules from article PMC10419416, “Fighting Pseudomonas aeruginosa Infections: Antibacterial and Antibiofilm Activity of D-Q53 CecB, a Synthetic Analog of a Silkworm Natural Cecropin B Variant” (International Journal of Molecular Sciences, 2023).

≈ marks a conversion by molar mass, not a printed value. Non-standard residues stand in square brackets, D forms with d. Residues, ends and D or L forms follow the SMILES beside them. No end group written: not given here.

On to `CC[C@@H](C)[C@@H](NC(=O)[C@@H](C)NC(=O)[C@@H](CCCCN)NC(=O)[C@@H](C)NC(=O)[C@@H](CO)NC(=O)CNC(=O)[C@@H](CC(C)C)NC(=O)[C@H](NC(=O)[C@@H](CCC(N)=O)NC(=O)[C@H](NC(=O)[C@@H](C)NC(=O)[C@H]1CCCN1C(=O)CNC(=O)[C@@H](C)NC(=O)[C@@H](CCCCN)NC(=O)[C@H](NC(=O)[C@H](NC(=O)CNC(=O)[C@@H](CC(=O)O)NC(=O)[C@@H](CCCNC(=N)N)NC(=O)[C@H](NC(=O)[C@@H](CC(N)=O)NC(=O)[C@@H](CCCNC(=N)N)NC(=O)CNC(=O)[C@@H](CCSC)NC(=O)[C@@H](CCCCN)NC(=O)[C@@H](CCC(=O)O)NC(=O)[C@H](NC(=O)[C@@H](CCCCN)NC(=O)[C@@H](CCCCN)NC(=O)[C@@H](Cc1ccccc1)NC(=O)[C@H](NC(=O)[C@@H](CCCCN)NC(=O)[C@@H](Cc1c[nH]c2ccccc12)NC(=O)[C@H](N)CCCNC(=N)N)[C@H](C)CC)[C@H](C)CC)[C@H](C)CC)[C@H](C)CC)C(C)C)[C@H](C)CC)C(C)C)C(N)=O` [D-Q53 CecB] (H-[dR][dW][dK][dI][dF][dK][dK][dI][dE][dK][dM]G[dR][dN][dI][dR][dD]G[dI][dV][dK][dA]G[dP][dA][dI][dQ][dV][dL]G[dS][dA][dK][dA][dI]-NH2; N-terminus and C-terminus assumed), for which the “mean decrement in biomass of pre-formed biofilm” value (from here on “mean decrement in biomass”) in data set [1] (1/2 MIC (1.1 μM)) worked out at 38%. Further, in data set [1] (1/4 MIC (0.55 μM), 1 h), the “reduction of pre-formed biofilm” value was “lost its ability to reduce pre-formed biofilms”. Also, in data set [1] (8 MIC (17.6 μM)), the “mean decrement in biomass” value is on record as 52%. Also, the “mean decrement in biomass” value in data set [2] (1/2 MIC (1.1 μM)) is 49%. Besides, the “reduction of pre-formed biofilm” value in data set [2] (1/4 MIC (0.55 μM), 1 h) is given as “lost its ability to reduce pre-formed biofilms”. Moreover, in data set [2] (8 MIC (17.6 μM)), the “mean decrement in biomass” value is on record as 64%. In data set [3], the “mean CFUs/mL decrement vs untreated control” value is listed as 7 orders of magnitude and the “living bacterial cells in the medium, Mean ± SEM” value was 6.70 ± 6.6 × 10^8 CFUs/mL. Besides, in data set [4], the MBC stood at 4.40 µM (≈ 17.1 µg/mL). For the same molecule, the “reduction in biofilm thickness vs untreated controls” value in data set [5] is ~ 77%. Moreover, in data set [6] (100 µM), the mean hemolysis was determined as 5.9%. Further, the “MHC (minimum hemolytic concentration causing 5% hemolysis of hRBCs)” value in data set [6] worked out at 100 µM. In addition, in data set [7], the “expression level of fimX” value is given as “not significantly different”, the “expression level of lasI” value is recorded as “did not significantly alter”, the “expression level of rpoS” value is recorded as “did not significantly alter” and the “expression of algD” value is on record as “significantly lower”. Besides, in data set [7], the “expression of pelA” value is on record as “significantly lower” and the “transcription of pslA” value is on record as “did not affect”.

Take “RWKIFKKIEKMGRNIRDGIVKAGPAIQVLGSAKAI-NH2 [L-Q53 CecB]”: the “reduction of pre-formed biofilm biomass” value in data set [1] (4 MIC, 1 h, single sample) is “significant biofilm biomass decrements”. Moreover, the “reduction of pre-formed biofilm biomass at all tested concentrations” value in data set [1] (1 h, L-Q53 CecB 1/2 to 8 MIC (except 4 MIC), tobramycin 1 to 8 MIC) is reported as “did not significantly reduce biofilm biomass”. The “reduction of pre-formed biofilm biomass at all tested concentrations” value in data set [2] (1 h, L-Q53 CecB 1/2 to 8 MIC, tobramycin 1 to 8 MIC) is recorded as “did not significantly reduce biofilm biomass”. In data set [3], the “mean CFUs/mL decrement vs untreated control” value is listed as 10 orders of magnitude and the “living bacterial cells in the medium, Mean ± SEM” value is 2.89 ± 2.38 × 10^5 CFUs/mL. In data set [4], this molecule displayed an MBC of 11 µM. The “reduction in biofilm thickness vs untreated controls” value in data set [5] is “did not significantly reduce biofilm thickness”. In data set [6], the “MHC (minimum hemolytic concentration causing 5% hemolysis of hRBCs)” value is over 200 µM. Moreover, in data set [7], the “expression level of fimX” value is “not significantly different”, the “expression level of lasI” value is recorded as “did not significantly alter”, the “expression level of rpoS” value is given as “did not significantly alter” and the “expression of algD” value is “None of the analyzed genes were altered”. In addition, in data set [7], the “expression of pelA” value was “None of the analyzed genes were altered” and the “transcription of pslA” value was “did not affect”.
